From patent US20240060072A1, “METHOD AND COMPOSITION FOR TREATING NON-ALCOHOLIC FATTY LIVER DISEASE, ASSOCIATED CONDITIONS AND SYMPTOMS” (THE HONG KONG POLYTECHNIC UNIVERSITY, priority 2022, published 2024)

Tests used:
mouse SCD1 promoter = assay: SCD1 promoter luciferase reporter assay and RT-qPCR in HEK293 cells; format: cell-based; conditions: DHEA 100 μM for 24 h
Method: In vitro luciferase reporter assay was performed to further validate the expression of SCD1 is transcriptional regulated by GPR110. Plasmid harbouring luciferase gene driven by the mouse SCD1 promoter (−2000 to +100) was constructed to transfect into HEK293 cells. Typically, HEK293 cells were cultured in DMEM supplemented with 10% FBS, 100 U/ml penicillin and 100 μg/ml streptomycin at 37° C. and 5% CO2, and then seeded in 6-well plates followed by transfection with pGL3-SCD1 promoter and adenoviral vector expressing either GPR110 (ADV-GPR110) or GFP (ADV-GFP) by using the transfection reagent (#E4981, Promega, WI, USA). There was no change of luciferase activity of pGL3- SCD1 promoter-luciferase transfected HEK293 cells under the treatment of GPR110 ligand DHEA, unless the HEK293 cells were pre-infected with adenovirus overexpressing GPR110 (ADV-GPR110; FIG. 9C). The overexpression of GPR110 in ADV-GPR110 infected cells and inductions of SCD1 mRNA expression by treatment of DHEA were also validated by RT-qPCR (FIG. 9D). The changes in hepatocyte lipid profiles by the expression level of GPR110 and SCD1 were also checked. In agreement with the in vivo data, the overexpression of GPR110 increased the intracellular CHO (FIG. 9E), TG (FIG. 9F) and FFA (FIG. 9G). […] In summary, the transcription level of SCD1 is regulated by GPR110. […]

HFD-fed mice = assay: CCl4 or STZ treatment of HFD-fed mice: hepatic mRNA by RT-qPCR; format: in vivo, mouse; conditions: compared to untreated HFD-fed mice
SCD1 [1] = assay: SCD1 inhibitor MK8245 in HFD-fed rAAV-GPR110 mice: circulating lipids, liver enzymes, hepatic steatosis
Method: In general, 8-week-old C57BL/6J male mice were housed in pathogen-free conditions at controlled temperature with a 12-hour light-dark cycle and access to food and water ad libitum. […] Briefly, mice were tail vein injected with 3×10^11 rAAV2/8 vector harboring either green fluorescent protein (GFP) or GPR110. […] All measurements were carried out in a randomized order.
Typically, for plasma and hepatic lipid level, serum levels of triglyceride (TG) and total cholesterol (CHO) were measured using commercial kit (Biosino, biotechnology and science INC, China) according to the manufacturer's instructions. Hepatic lipids were extracted using Folch methodology and liver extract was dissolved in ethanol for TG and CHO measurements. Both serum and hepatic levels of free fatty acid (FFA) were measured using commercial kit (Solarbio, China).
Typically, for liver function assay, the alanine aminotransferase (ALT) and aspartate aminotransferase (AST) levels were measured in serum using commercial kits (Stanbio, USA).

SCD1 [2] = assay: SCD1 inhibitor MK8245 in HFD-fed rAAV-GPR110 mice: GPR110 expression, body weight, glucose homeostasis; format: in vivo, mouse
Method: FIG. 10A schematically depicts a scheme of different treatments to a mouse model according to certain embodiments, where eight-week-old male C57BL/6J mice were infected with either 3×10^11 copies of rAAV encoding GPR110 (rAAV-GPR110) via i.v. or control (rAAV-GFP) via i.v. after 8-week HFD feeding, and then 2 weeks after infection treated with SCD1 inhibitor, MK8245, at 10 mg/kg/week via oral administration (p.o.) or inhibitor vehicle (inhibitor-Veh.) via p.o.;
To evaluate the impacts of high hepatic GPR110 level on liver metabolism, GPR110 was overexpressed in the hepatocytes of HFD-fed mice by liver-directed rAAV/thyroxine binding globulin (TBG)-mediated gene expression system (FIGS. 2A and 3A). In general, 8-week-old C57BL/6J male mice were housed in pathogen-free conditions at controlled temperature with a 12-hour light-dark cycle and access to food and water ad libitum. The 8-week-old male mice were divided into two groups and fed with high-fat diet (HFD, 20% protein, 45% fat, 35% carbohydrates, Research Diets Inc., New Brunswick, NJ, USA), or standard chow diet (STC, 18.3% protein, 10.2% fat, 71.5% carbohydrates, Research Diet Inc., New Brunswick, NJ, USA) in some other examples, for 8 weeks. The recombinant adeno-associated virus vector rAAV2/8 transduction was conducted as described previously (Lee et al, 2016; Cheng et al, 2022). Briefly, mice were tail vein injected with 3×10^11 rAAV2/8 vector harboring either green fluorescent protein (GFP) or GPR110. In other examples, for antisense oligonucleotide (ASO) delivery, validated ASOs against mouse GPR110 were provided by Ionis Pharmaceuticals and injected subcutaneously once a week at 5 mg/kg body weight to the mice. In some other examples, for SCD1 inhibitor delivery, MK-8245 (MedChemExpress, NJ, USA) was gavage at 10 mg/kg once a week. All measurements were carried out in a randomized order. Typically, glucose profile measurement was performed in terms of the blood glucose and insulin level by collecting the blood samples from the tip of the tail of the mouse models using a glucometer. For the glucose tolerance test (GTT), insulin tolerance test (ITT) and pyruvate tolerance test (PTT), mice were fasted overnight prior to intraperitoneal injection of glucose (1 g/kg body weight (BW)) (Sigma, St. Louis, MO), 0.75 U/kg BW insulin (Novolin R, Novo Nordisk, Bagsvaerd, Denmark) or 1 g/kg BW pyruvate (Sigma, St. Louis, MO). Blood glucose levels were measured from the tip of tail vein at 15, 30, 60, 90 and 120 minutes after injection.

[3] = HFD-fed rAAV-GPR110 mice, 10 mg/kg/week p.o.
[4] = compared to the rAAV-GPR110 littermates
[5] = HFD-fed rAAV-GPR110 mice, vs untreated littermates
[6] = rAAV-GPR110 mice, chronic treatment for 11 weeks, 10 mg/kg/week p.o.

Q: Which “SCD1 mRNA expression” value (mouse SCD1 promoter; ADV-GPR110 infected HEK293 cells, RT-qPCR) does the source give for `CC/C=C\C/C=C\C/C=C\C/C=C\C/C=C\C/C=C\CCC(=O)NCCO` [DHEA] here?
A: The value was “inductions”.

Q: And the “luciferase activity of pGL3-SCD1 promoter-luciferase” value (mouse SCD1 promoter; HEK293 cells not pre-infected with ADV-GPR110)?
A: The value was “no change”.

Q: What does the source list for `CN(N=O)C(=O)N[C@@H]1[C@@H](O)[C@H](O)[C@@H](CO)O[C@@H]1O` [STZ]?
A: SCD1 mRNA expression level (HFD-fed mice): significantly higher; expression of hepatic GPR110 mRNA (HFD-fed mice): significantly increased

Q: Which results are given for `O=C(O)Cn1nnc(-c2cc(N3CCC(Oc4cc(F)ccc4Br)CC3)no2)n1` [MK8245, 5-[3-[4-(2-bromo-5-fluorophenoxy)-1-piperidinyl]-5-isoxazolyl]-2H-tetrazole-2-acetic acid]?
A: HDL (SCD1 [1]; HFD-fed rAAV-GPR110 mice): relatively higher; LDL level (SCD1 [1]; HFD-fed rAAV-GPR110 mice): no differences detected; circulating FFA level (SCD1 [1]; HFD-fed rAAV-GPR110 mice): no change; severity of fibrosis (SCD1 [1]; HFD-fed rAAV-GPR110 mice): partially reduced; circulating CHO level (SCD1 [1]; [3]): lowered; circulating TG level (SCD1 [1]; [3]): lowered; ALT level (SCD1 [1]; [4]): alleviated; AST level (SCD1 [1]; [4]): alleviated; body weight (SCD1 [2]; HFD-fed rAAV-GPR110 mice, 10 mg/kg/week p.o., vs untreated littermates): lowered; HOMR-IR (SCD1 [2]; [5]): improved; fasting glucose level (SCD1 [2]; [5]): improved; insulin sensitivity by ITT (SCD1 [2]; [5]): no change; performance in GTT (SCD1 [2]; [5]): improved; performance in PTT (SCD1 [2]; [5]): improved; expression of GPR110 mRNA (SCD1 [2]; [6]): did not affect; expression of GPR110 protein (SCD1 [2]; [6]): did not affect

Q: Which results are given for `ClC(Cl)(Cl)Cl` [CCl4]?
A: SCD1 mRNA expression level (HFD-fed mice): significantly higher; expression of hepatic GPR110 mRNA (HFD-fed mice): significantly increased
